Source: article PMC5321434, “Dihydrobenz[e][1,4]oxazepin-2(3H)-ones, a new anthelmintic chemotype immobilising whipworm and reducing infectivity in vivo” (PLoS Neglected Tropical Diseases, 2017)
Read-outs that look alike come from different tables or passages of the source.

Columns and labels:
T. trichiura = details: cited from earlier work
adult T. muris = test: Ex vivo adult T. muris automated motility assay (primary/secondary screen at 100 μM and dose-response); parameters: species or system Trichuris muris; details: Trichuris muris
How it was run: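 Motility scored after 24 h (37 °C, 5% CO2) by automated imaging of pixel intensity variance, one worm per well, four weekly biological replicates. Worms came from SCID mice infected orally with 200 eggs, harvested day 35; screening at 100 μM final in RPMI-1640/antibiotics, 1% DMSO; curves fitted with four-parameter log-logistic model.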

[1] = test system: CMT-93 murine rectal epithelial cells; test: WST-8 cytotoxicity assay; type: cell-based, mouse; details: Mus musculus, CMT93; CMT-93 cells, 72 hours, maximum tested concentration 100μM, n = 8, 95% confidence interval in parentheses
Description: CMT-93 murine rectal epithelial cells were maintained in Dulbecco's Modified Eagle's Medium (DMEM) with 10% fetal calf serum (FCS) and 1% penicillin-streptomycin solution (10,000U/ml). Cells were plated in 96-well tissue culture plates at a density of 2x10^2 cells per well in a volume of 100μl, and cultured for 96 hours (37°C, 5% CO2) until reaching 30% confluence. The growth medium was removed and replaced with treatment media (DMEM, 1% FCS, 1% penicillin-streptomycin solution, 100μl assay volume) supplemented with vehicle alone (DMSO), test compounds or chlorpromazine, a positive control for cytotoxicity (final concentrations from 0 to 100μM). Maximum vehicle concentration for all compounds was 0.5% DMSO. Cells were cultured with the test compounds for 72 hours before cytotoxicity measurement. The WST-8 assay was performed using the Cell Counting Kit– 8 (Sigma Aldrich # 96992). 10μl of the CCK-8 solution was added to each well, plates were incubated for a further 2 hours, before absorbance was measured at 450nm using a microplate reader. This assay measures the ability of metabolically active cells to reduce a water-soluble formazan dye. Results were analysed using GraphPad Prism and fitted using a log-logistic model.

[2] = test system: CMT-93 murine rectal epithelial cells; test: Neutral red cytotoxicity assay; type: cell-based, mouse; details: Mus musculus, CMT93; CMT-93 cells, 72 hours, maximum tested concentration 100μM, n = 8, 95% confidence interval in parentheses
Description: CMT-93 murine rectal epithelial cells were maintained in Dulbecco's Modified Eagle's Medium (DMEM) with 10% fetal calf serum (FCS) and 1% penicillin-streptomycin solution (10,000U/ml). Cells were plated in 96-well tissue culture plates at a density of 2x10^2 cells per well in a volume of 100μl, and cultured for 96 hours (37°C, 5% CO2) until reaching 30% confluence. The growth medium was removed and replaced with treatment media (DMEM, 1% FCS, 1% penicillin-streptomycin solution, 100μl assay volume) supplemented with vehicle alone (DMSO), test compounds or chlorpromazine, a positive control for cytotoxicity (final concentrations from 0 to 100μM). Maximum vehicle concentration for all compounds was 0.5% DMSO. Cells were cultured with the test compounds for 72 hours before cytotoxicity measurement. Following the WST-8 assay, the medium was removed, cells were washed with 100μl PBS and then 100μl of neutral red medium (DMEM, 1% FBS and 33μg/ml neutral red dye (Sigma Aldrich #N2889) were added to each well, followed by incubation for a further 2 hours. The neutral red medium was removed, cells washed with 100μl of PBS and 100μl of destain solution (50% ethanol, 49% distilled water and 1% glacial acetic acid) were added. Each assay plate was shaken rapidly for 10 minutes before absorbance was measured at 540nm using a microplate reader. This assay measures the ability of living cells to actively take up the neutral red dye. Results were analysed using GraphPad Prism and fitted using a log-logistic model.

[3] = test system: embryonated T. muris eggs; test: In vivo establishment of infection by compound-treated embryonated eggs; parameters: species or system Trichuris muris; details: eggs soaked 14 days at 100μM
Description: 100 infective embryonated eggs were incubated with water, water plus DMSO vehicle, or test compounds at a final concentration of 100μM for 14 days at room temperature. Eggs were then washed, re-suspended in water and 30 eggs given to a mouse via oral gavage. At day 15 post-infection, mice were culled and the number of worms present in the caecae and colon was counted. One data point was excluded: a water control individual mouse where there were technical difficulties with the oral gavage leading to the mouse regurgitating some of the T. muris eggs. It was ear marked at day of gavage and removed from the analysis.
We collected data using the same experimental design on different occasions, these are referred to as batches. Data were obtained from three batches (DMSO and water controls, batches [A,B,C]) or two batches (OX02983 [A,C], OX03153 [B,C]) with the total number of mice used, n, as follows: DMSO: 14, water: 16, OX02983: 10, OX03153: 12. The data were analysed by 2-way ANOVA (worms ~ treatment + batch + treatment * batch). There was no significant interaction effect (P = 0.14) or effect of batch (P = 0.47). We therefore combined the data from the three batches. […] We then conducted a post-hoc test using Tukey’s honest significant difference test.

Ascaris = test system: Ascaris; parameters: method as in PMID 18430913; details: annual treatment; cited from earlier work
T. muris [4] = details: associated with cuticular damage; cited from earlier work
T. muris [5] = details: associated with damage to nematode cuticle; cited from earlier work
[6] = values of Fig 5 shown for comparison, read-out: EC50 in adult Trichuris paralysis assay

Molecule: c1ccc([C@H]2CN3CCSC3=N2)cc1 [Levamisole, reference compound]
- Single-dose cure rate, trichiuriasis (T. trichiura; single dose, no reference given): 9%
- EC50 (adult T. muris; single adult worms, 24 hours incubation, automated motility assay, EC50 ± standard error, n = 5 (OX03144 n = 10), read-out: EC50, attenuation of ex vivo T. muris adult motility): 8 µM

Molecule: Cc1ccc(CN2C(=O)COCc3cc(-c4ccncc4)ccc32)cc1 [OX02983, 1-(4-Methylbenzyl)-7-(pyridin-4-yl)-1,5-dihydrobenzo[e][1,4]oxazepin-2(3H)-one]
- EC50 [1]: > 100 µM
- EC50 (adult T. muris; [6]): 50 µM
- EC50 [2]: > 100 µM
- Median worms establishing infection ([3]; 30 eggs by oral gavage, day 15 post-infection): 5.5 worms
- Reduction of infectivity in vivo of treated embryonated eggs ([3]; washed, 30 eggs by oral gavage to mice, worms counted day 15, versus DMSO control): ~54%

Molecule: O=C1COCc2cc(-c3cccnc3)ccc2N1CC1CCCCC1 [OX02993, 1-(Cyclohexylmethyl)-7-(pyridin-3-yl)-1,5-dihydrobenzo[e][1,4]oxazepin-2(3H)-one]
- EC50 [1]: > 100 µM
- EC50 (adult T. muris; [6]): 52 µM
- EC50 [2]: > 100 µM

Molecule: O=C1COCc2cc(-c3cccnc3)ccc2N1Cc1ccc(C(F)(F)F)cc1 [OX03144, 7-(Pyridin-3-yl)-1-(4-(trifluoromethyl)benzyl)-1,5-dihydrobenzo[e][1,4]oxazepin-2(3H)-one]
- EC50 [1]: > 100 µM
- EC50 (adult T. muris; [6]): 26 µM
- EC50 [2]: 60 µM

Molecule: Cc1ccc(CN2C(=O)COCc3cc(Br)ccc32)cc1 [OX03146, 7-Bromo-1-(4-methylbenzyl)-1,5-dihydrobenzo[e][1,4]oxazepin-2(3H)-one]
- EC50 [1]: 63 µM
- EC50 (adult T. muris; [6]): 35 µM
- EC50 [2]: 47 µM

Molecule: CCCSc1ccc2nc(NC(=O)OC)[nH]c2c1 [albendazole]
- Cure rate for infection with T. trichiura (T. trichiura; single doses of benzimidazoles): 28%
- Cure rate, Ascaris (Ascaris): up to 95%

Molecule: COc1c2ccoc2cc2oc(=O)ccc12 [bergapten]
- Activity against T. muris (T. muris [4]): activity against T. muris

Molecule: C/C=C/c1cc(OC)c2c(c1)OCO2 [isomyristicin]
- Activity against T. muris (T. muris [4]): activity against T. muris

Molecule: O=c1cc(-c2ccc(O)c(O)c2)oc2cc(O)cc(O)c12 [luteolin]
- Activity against T. muris (T. muris [4]): activity against T. muris

Molecule: CN1CCCN=C1/C=C/c1cccc(O)c1.O=C(O)c1cc2ccccc2c(Cc2c(O)c(C(=O)O)cc3ccccc23)c1O [oxantel pamoate]
- Single-dose cure rate, T. trichiura (T. trichiura; children, optimal dose, dose-ranging study): 60%

Molecule: ficin
- Effect on motility of T. muris parasites in vitro (T. muris [5]): rapidly reduce motility

B1: papain (protein, UniProt P00784 134-345, looked up)
Papain: IPEYVDWRQKGAVTPVKNQGSCGSCWAFSAVVTIEGIIKIRTGNLNEYSEQELLDCDRRSYGCNGGYPWSALQLVAQYGIHYRNTYPYEGVQRYCRSREKGPYAAKTDGVRQVQPYNEGALLYSIANQPVSVVLEAAGKDFQLYRGGIFVGPCGNKVDHAVAAVGYGPNYILIKNSWGTGWGENGYIRIKRGTGNSYGVCGLYTSSFYPVKN
notes: purified protease
- Effect on motility of T. muris parasites in vitro (T. muris [5]): rapidly reduce motility
